Measured values published in ChEMBL document CHEMBL1201862, “PubChem BioAssay data set” (2004).
Active and inactive are the calls of the source.

Experiments:
[1] = A cytotoxicity screen of small molecule inhibitors of the PhoP region in Salmonella typhi identified in the primary screen. [Related pubchem assays: 1850, 1864, 1985 ]; format: functional
[2] = inhibitors of Bluetongue virus cytopathic effect, confirmation, arbovirus, BSR cells (AID 1250); format: functional;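 further: protection from viral cytopathic effect measured as cell viability by ATP luminescence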
[3] = cells
[4] = molecular target: T1, Nuclear receptor subfamily 0 group B member 1 (Homo sapiens, UniProt P51843); format: functional, cell-based;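 further: HEK293T cells transfected with SF-1 and DAX-1 plus StAR promoter luciferase reporter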
T1 sequence (P51843 whole entry): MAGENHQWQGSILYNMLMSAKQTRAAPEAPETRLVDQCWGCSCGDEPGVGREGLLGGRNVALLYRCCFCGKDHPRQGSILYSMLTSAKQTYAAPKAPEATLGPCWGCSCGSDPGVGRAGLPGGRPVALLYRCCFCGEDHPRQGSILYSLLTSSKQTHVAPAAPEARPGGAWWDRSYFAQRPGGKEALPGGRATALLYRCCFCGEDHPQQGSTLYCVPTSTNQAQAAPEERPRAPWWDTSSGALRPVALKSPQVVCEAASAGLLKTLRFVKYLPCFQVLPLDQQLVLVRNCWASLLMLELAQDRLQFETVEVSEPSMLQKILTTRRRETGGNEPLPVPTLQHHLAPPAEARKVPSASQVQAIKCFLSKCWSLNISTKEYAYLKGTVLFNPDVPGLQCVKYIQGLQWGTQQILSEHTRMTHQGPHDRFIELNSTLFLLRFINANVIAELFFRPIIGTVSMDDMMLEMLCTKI

[5] = cells; format: functional, cell-based
[6] = Luminescence-based counterscreen assay for KLF5 inhibitors: dose response cell-based high throughput screening assay to identify cytotoxic compounds using the IEC-6 intestinal epithelial cell line. [Related pubchem assays: 1700 (Primary screen.), 1834 (Confirmation screen.), 1858 (Summary AID.), 1905 (Counterscreen.)]; format: functional
[7] = molecular target: T2, Oxysterols receptor LXR-beta (Homo sapiens, UniProt P55055); format: functional, cell-based;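 further: Cell-based luminescence dose-response assay of agonist activity at LXR, run as a confirmatory counterscreen to a daf-12 agonist screen; HEK293 cells with Gal4-LXR fusion and GAL4-driven luciferase reporter; agonist potency from rising luciferase signal of a Gal4-LXR reporter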
T2 sequence (P55055 whole entry): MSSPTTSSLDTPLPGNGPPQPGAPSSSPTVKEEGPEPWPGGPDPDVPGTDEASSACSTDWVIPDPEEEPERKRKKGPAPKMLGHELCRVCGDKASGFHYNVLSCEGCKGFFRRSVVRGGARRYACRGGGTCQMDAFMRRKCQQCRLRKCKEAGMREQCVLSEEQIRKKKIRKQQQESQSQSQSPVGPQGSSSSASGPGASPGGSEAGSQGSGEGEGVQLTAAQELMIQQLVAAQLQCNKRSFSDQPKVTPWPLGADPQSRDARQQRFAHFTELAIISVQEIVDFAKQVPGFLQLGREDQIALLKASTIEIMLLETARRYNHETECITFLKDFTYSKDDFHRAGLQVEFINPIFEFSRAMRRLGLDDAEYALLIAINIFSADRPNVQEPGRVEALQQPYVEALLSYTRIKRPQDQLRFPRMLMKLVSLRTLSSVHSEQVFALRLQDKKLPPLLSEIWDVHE

[8] = molecular target: Procathepsin L (Homo sapiens, UniProt P07711)
[9] = molecular target: T3, Aspartyl aminopeptidase (Plasmodium falciparum 3D7, UniProt Q8I2J3)
T3 sequence (Q8I2J3 whole entry): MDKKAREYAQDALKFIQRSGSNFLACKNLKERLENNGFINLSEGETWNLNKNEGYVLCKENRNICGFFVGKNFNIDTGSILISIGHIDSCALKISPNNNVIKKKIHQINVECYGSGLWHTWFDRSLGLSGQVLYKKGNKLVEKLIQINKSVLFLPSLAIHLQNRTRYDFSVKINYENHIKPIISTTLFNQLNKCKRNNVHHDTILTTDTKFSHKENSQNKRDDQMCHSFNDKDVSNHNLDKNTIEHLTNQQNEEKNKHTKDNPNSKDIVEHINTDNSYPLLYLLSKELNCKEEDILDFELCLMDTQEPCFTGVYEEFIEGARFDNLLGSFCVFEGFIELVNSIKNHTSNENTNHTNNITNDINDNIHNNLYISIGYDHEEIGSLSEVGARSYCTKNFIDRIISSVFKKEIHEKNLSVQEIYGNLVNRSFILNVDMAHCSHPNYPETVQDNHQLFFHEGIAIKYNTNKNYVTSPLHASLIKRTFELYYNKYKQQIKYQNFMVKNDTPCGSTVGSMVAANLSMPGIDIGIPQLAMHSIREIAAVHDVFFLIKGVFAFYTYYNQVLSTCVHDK

[10] = molecular target: Glyceraldehyde-3-phosphate dehydrogenase (Homo sapiens, UniProt P04406)
[11] = molecular target: Beta-galactosidase (Escherichia coli, UniProt Q8VNN2); assay: beta-galactosidase enzyme inhibitors and activators, dose response, artefact control for CCR6 antagonist project, biochemical, E. coli enzyme, set 3 (AID 504712); format: functional
[12] = molecular target: Heat shock protein HSP 90-alpha (Homo sapiens, UniProt P07900); format: functional, organism-based
[13] = molecular target: T4, Caspase-7 (Homo sapiens, UniProt P55210); assay: procaspase-7 activators, dose response, dual procaspase-3/-7 activator project, biochemical, absorbance, human (AID 504330)
T4 sequence (P55210 whole entry): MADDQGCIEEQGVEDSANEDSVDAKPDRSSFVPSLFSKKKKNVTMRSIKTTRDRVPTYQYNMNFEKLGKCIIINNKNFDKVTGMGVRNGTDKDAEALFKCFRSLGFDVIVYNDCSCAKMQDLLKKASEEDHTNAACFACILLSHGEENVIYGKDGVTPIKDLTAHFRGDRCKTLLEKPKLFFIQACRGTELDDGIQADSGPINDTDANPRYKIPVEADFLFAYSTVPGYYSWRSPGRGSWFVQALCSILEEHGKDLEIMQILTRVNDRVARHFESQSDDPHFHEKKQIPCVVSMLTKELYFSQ

[14] = molecular target: T5, Caspase-3 (Homo sapiens, UniProt P42574); assay: procaspase-3 activation potency of dual hits, dose response, counter-screen for dual procaspase-3/7 activator project, biochemical, absorbance, PC-3 D3A mutant (AID 504328)
T5 sequence (P42574 whole entry): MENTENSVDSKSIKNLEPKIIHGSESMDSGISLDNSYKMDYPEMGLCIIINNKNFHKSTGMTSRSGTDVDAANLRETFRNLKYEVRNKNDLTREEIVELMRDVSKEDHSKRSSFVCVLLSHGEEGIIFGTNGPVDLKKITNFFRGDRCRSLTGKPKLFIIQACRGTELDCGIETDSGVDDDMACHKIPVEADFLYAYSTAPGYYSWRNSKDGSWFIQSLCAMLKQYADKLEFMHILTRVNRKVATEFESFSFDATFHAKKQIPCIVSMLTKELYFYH

[15] = molecular target: T6, Neuropeptides B/W receptor type 1 (Homo sapiens, UniProt P48145); assay: GPR7 antagonist potency, late-stage follow-up, cell-based, fluorescence, dose response (AID 463251); format: functional
T6 sequence (P48145 whole entry): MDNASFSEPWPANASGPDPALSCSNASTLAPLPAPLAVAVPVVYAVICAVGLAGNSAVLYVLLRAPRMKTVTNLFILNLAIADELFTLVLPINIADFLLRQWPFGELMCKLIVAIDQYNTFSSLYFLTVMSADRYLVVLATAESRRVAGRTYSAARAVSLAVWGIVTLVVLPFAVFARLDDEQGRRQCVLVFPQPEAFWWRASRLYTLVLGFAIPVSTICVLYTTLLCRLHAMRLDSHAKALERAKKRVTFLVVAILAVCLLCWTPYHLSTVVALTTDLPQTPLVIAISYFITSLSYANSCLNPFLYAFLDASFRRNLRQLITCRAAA

[16] = molecular target: Melanin-concentrating hormone receptor 1 (Homo sapiens, UniProt Q99705); assay: Late-stage fluorescence-based counterscreen for antagonists of the G-protein coupled receptor 7 (GPR7): cell-based dose response assay to identify antagonists of the melanin-concentrating hormone receptor 1 (MCHR1). [Related pubchem assays (depositor defined):AID1861, AID1880, AID1952, AID2148, AID2251, AID2257, AID485339]; format: functional;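 further: stimulated with 30 nM MCH peptide agonist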
[17] = molecular target: T7, Alkaline phosphatase, tissue-nonspecific isozyme (Homo sapiens, UniProt P05186); assay: human TNAP enzyme inhibitors, SAR follow-up, biochemical, luminescent, dose response (AID 1056)
T7 sequence (P05186 whole entry): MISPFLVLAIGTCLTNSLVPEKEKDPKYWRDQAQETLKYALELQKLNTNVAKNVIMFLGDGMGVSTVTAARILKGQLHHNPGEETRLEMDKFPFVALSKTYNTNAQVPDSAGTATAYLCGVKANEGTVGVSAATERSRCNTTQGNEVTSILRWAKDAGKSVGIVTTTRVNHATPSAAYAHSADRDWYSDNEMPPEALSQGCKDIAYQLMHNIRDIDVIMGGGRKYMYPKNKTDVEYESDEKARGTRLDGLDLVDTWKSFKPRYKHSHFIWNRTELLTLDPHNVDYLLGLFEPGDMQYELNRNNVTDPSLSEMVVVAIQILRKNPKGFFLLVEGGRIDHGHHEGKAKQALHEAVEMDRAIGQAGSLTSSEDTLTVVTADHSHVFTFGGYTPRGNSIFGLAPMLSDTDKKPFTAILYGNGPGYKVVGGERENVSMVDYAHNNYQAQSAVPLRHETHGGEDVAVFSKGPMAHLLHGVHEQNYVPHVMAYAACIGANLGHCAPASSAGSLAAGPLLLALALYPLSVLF

[18] = molecular target: Alkaline phosphatase, placental type (Homo sapiens, UniProt P05187); assay: PLAP enzyme inhibitors, confirmation, biochemical, luminescence (AID 1512); format: functional
Chain of Alkaline phosphatase, placental type (P05187 whole entry): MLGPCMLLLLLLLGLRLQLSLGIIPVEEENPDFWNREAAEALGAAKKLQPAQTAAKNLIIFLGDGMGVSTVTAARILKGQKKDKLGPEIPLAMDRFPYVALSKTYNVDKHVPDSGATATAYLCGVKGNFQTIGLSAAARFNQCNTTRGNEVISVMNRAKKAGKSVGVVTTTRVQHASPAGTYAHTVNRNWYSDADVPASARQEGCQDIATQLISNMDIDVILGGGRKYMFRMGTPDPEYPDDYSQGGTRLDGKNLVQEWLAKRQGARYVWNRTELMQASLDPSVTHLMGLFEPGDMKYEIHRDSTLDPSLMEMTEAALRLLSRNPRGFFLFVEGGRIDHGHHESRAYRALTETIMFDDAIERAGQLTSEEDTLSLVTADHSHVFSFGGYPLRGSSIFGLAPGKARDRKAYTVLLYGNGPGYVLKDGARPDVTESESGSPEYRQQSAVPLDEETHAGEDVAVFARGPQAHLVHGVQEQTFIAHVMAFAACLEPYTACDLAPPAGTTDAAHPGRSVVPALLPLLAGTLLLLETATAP

Chain of Beta-galactosidase (Q8VNN2 whole entry): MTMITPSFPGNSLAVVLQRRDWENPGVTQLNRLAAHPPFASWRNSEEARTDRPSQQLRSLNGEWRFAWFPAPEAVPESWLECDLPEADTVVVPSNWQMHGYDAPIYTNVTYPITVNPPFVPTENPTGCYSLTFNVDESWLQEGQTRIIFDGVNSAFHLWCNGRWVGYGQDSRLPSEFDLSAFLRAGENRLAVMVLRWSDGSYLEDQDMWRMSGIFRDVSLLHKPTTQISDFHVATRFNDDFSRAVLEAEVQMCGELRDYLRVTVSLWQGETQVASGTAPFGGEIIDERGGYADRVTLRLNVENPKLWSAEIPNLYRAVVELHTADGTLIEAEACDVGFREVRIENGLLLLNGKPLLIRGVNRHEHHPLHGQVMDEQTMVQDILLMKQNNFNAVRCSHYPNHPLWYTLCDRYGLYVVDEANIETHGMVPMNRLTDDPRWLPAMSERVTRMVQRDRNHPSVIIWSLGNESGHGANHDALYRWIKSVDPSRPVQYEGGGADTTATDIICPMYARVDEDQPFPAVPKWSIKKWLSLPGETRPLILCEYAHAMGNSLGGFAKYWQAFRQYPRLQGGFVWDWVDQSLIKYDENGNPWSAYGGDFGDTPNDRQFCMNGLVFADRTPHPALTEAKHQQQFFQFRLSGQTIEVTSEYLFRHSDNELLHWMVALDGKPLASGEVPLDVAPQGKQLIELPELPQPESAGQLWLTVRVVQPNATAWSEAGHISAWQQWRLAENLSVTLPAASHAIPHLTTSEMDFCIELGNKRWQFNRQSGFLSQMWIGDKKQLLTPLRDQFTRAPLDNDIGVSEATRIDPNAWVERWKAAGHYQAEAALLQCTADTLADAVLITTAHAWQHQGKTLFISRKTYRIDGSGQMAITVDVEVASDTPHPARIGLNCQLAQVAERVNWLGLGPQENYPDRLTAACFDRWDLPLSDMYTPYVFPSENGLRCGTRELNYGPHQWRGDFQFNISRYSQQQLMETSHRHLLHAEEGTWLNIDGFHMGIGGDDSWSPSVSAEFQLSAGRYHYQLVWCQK
Chain of Glyceraldehyde-3-phosphate dehydrogenase (P04406 whole entry): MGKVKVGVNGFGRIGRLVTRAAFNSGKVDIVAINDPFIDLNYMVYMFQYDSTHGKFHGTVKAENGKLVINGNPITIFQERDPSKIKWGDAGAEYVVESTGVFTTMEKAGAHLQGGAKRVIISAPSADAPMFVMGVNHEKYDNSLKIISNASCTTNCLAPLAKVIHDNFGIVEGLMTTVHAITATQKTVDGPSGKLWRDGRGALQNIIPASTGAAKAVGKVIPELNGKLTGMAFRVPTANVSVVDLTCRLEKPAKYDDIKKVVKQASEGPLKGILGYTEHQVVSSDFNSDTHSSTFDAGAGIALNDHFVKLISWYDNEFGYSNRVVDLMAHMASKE
Chain of Procathepsin L (P07711 whole entry): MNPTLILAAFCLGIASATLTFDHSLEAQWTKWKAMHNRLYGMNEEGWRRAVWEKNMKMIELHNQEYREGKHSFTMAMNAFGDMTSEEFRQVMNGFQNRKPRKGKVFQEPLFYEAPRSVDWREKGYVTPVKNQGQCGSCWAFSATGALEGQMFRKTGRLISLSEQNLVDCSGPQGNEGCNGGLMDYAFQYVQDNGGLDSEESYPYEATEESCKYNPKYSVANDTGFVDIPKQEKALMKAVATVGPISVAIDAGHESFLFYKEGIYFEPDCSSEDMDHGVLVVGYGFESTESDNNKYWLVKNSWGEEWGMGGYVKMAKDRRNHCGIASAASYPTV
Chain of Melanin-concentrating hormone receptor 1 (Q99705 whole entry): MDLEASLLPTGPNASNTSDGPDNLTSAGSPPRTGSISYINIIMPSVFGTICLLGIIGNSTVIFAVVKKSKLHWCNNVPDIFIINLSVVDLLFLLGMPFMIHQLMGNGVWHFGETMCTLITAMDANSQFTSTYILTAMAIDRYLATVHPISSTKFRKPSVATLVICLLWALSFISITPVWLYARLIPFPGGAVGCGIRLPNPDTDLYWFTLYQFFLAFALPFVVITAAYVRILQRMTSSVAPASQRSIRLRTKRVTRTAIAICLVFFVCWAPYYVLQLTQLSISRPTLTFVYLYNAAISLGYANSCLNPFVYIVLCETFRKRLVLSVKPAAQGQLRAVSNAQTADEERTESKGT

COCCn1c(SCC(=O)Nc2nnc(C)s2)nnc1-c1c[nH]c2ccccc12
EC50 [1]: > 50 µM (active)

CCOC(=O)c1c(-c2ccc(C)o2)csc1NC(=S)NC(=O)c1ccccc1Br
IC50 [2]: 37.3 µM (active)

CCc1ccc(NC(=O)c2cnn3ccccc23)cc1
EC50 [3]: > 67.5 µM (inactive) | IC50 [4]: > 0.0926 µM (active) | IC50 [5]: > 67.5 µM (inactive) | IC50 [6]: > 39.8 µM (not active) | EC50 [7]: > 67.5 µM (inactive)

COc1cccc(-c2cc(C(=O)Nn3cnnc3)c3ccccc3n2)c1
IC50 [8]: > 59.6 µM (not active) | IC50 [9]: 1.87 µM (active)

CC(C)CNC(=O)c1cc(-c2ccc(Cl)cc2Cl)n[nH]1
IC50 [10]: > 10 µM (inconclusive)

O=C(Oc1ccc(Cl)c2cccnc12)c1cccnc1
IC50 [11]: > 66.6 µM (inactive) | AC50 [12]: 8.18 µM (active)

COC(=O)C1=NN(c2ccc(Cl)cc2)C2C(=O)N(c3ccccc3OC)C(=O)C12 (stereo not given)
EC50 [13]: > 85.3 µM (inactive) | EC50 [14]: > 85.3 µM (inactive)

O=C(C1CCCCN1Cc1c(F)cccc1Cl)N1CCN(c2ccc([N+](=O)[O-])cc2)CC1 (stereo not given)
IC50 [15]: 3.3 µM (active) | IC50 [16]: 3.3 µM (active)

O=C(c1cc(-c2ccc(Cl)cc2Cl)n[nH]1)N1CCCC1
IC50 [17]: 6.57 µM (active) | IC50 [18]: > 100 µM (inactive) | IC50 [10]: > 100 µM (not active)

CC(C)Oc1cccc(C(=O)NC(=S)Nc2cccc(C(F)(F)F)c2)c1
IC50 [11]: > 66.6 µM (inactive)
